The values that follow come from ChEMBL document CHEMBL3124853, “Synthesis and anti-Candidal activity of N-(4-aryl/cyclohexyl)-2-(pyridine-4-yl carbonyl) hydrazinecarbothioamide” (Bioorg Med Chem Lett, 2014).

Assay [1] deals with Candida tropicalis. In words: Antifungal activity against Candida tropicalis ATCC 66029 by microbroth dilution method. It is filed as functional. (Dilution methods test growth across graded concentrations, often in twofold steps.)
Assay [2] deals with Candida. In words: Antifungal activity against Candida sp. clinical isolate 13184 derived from high vaginal swabs by microbroth dilution method. The format is functional.
Assay [3] relates to Candida. In words: Antifungal activity against Candida sp. clinical isolate 12485 derived from urine by microbroth dilution method. It is filed as functional. To be noted: clinical isolate 12485, Urine.
Assay [4] concerns Candida. In words: Antifungal activity against Candida sp. clinical isolate 11972 derived from high vaginal swabs by microbroth dilution method. The format is functional.
Assay [5] concerns Candida. The assay can be described thus: Antifungal activity against Candida sp. clinical isolate 300 derived from urine by microbroth dilution method. The format is functional. To be noted: clinical isolate 300, Urine.
The nature of assay [6]: Cytotoxicity against human MCF10A cells after 48 hrs by WST1 assay. The format is cell-based. The conditions noted are these: MCF-10A. Background: Formazan colour is commonly taken as a measure of viable cells.
Assay [7] deals with HepG2. In words: Cytotoxicity against human HepG2 cells after 48 hrs by MTT assay. It is filed as cell-based. The conditions noted are these: HepG2, 48 h.
Assay [8] relates to Candida. In words: Antifungal activity against Candida sp. clinical isolate 178 derived from high vaginal swabs by microbroth dilution method. The format is functional.
The nature of assay [9]: Cytotoxicity against human HT1080 cells after 48 hrs by MTT assay. The format is cell-based. The conditions noted are these: HT-1080, 48 h.
In assay [10] the test system is Candida parapsilosis. In words: Antifungal activity against Candida parapsilosis ATCC 22019 by microbroth dilution method. The format is functional. The conditions noted are these: Lodderomyces parapsilosis.
The test system of assay [11] is Candida albicans. The assay can be described thus: Antifungal activity against Candida albicans ATCC 66027 by microbroth dilution method. It is filed as functional.
The test system of assay [12] is A549. In words: Cytotoxicity against human A549 cells after 48 hrs by MTT assay. The format is cell-based. The conditions noted are these: A549, 48 h.
For assay [13], the system named is Candida. In words: Antifungal activity against Candida sp. clinical isolate 12341 derived from urine by microbroth dilution method. It is filed as functional. The conditions noted are these: clinical isolate 12341, Urine.
Assay [14] has as its system Candida. The assay can be described thus: Antifungal activity against Candida sp. clinical isolate 12810 derived from blood by microbroth dilution method. It is filed as functional.

≈ marks a conversion by molar mass, not a printed value. Where only a bound is given, the exact number is not on record here.

For orientation: MIC means the least concentration at which growth counts as inhibited. Low readings indicate a more susceptible organism, high ones a less susceptible organism. In general, IC50 refers to the midpoint of a concentration-inhibition curve. Take `O=C(NNC(=S)Nc1ccccc1)c1ccncc1`: the MIC in assay [1] amounted to 1.6 µg/mL (≈ 5.88 µM); in [2] it was 12.5 µg/mL (≈ 45.9 µM); in assay [3], 1.6 µg/mL (≈ 5.88 µM); in assay [4], 6.25 µg/mL (≈ 22.9 µM); in [5] it was 0.19 µg/mL (≈ 0.698 µM); in assay [8], 6.25 µg/mL (≈ 22.9 µM). Moreover, the MIC turned out to be 0.39 µg/mL (≈ 1.43 µM) in assay [10], 0.19 µg/mL (≈ 0.698 µM) in assay [11], 1.6 µg/mL (≈ 5.88 µM) in assay [13] and 0.78 µg/mL (≈ 2.86 µM) in assay [14]. The half-inhibitory concentration (IC50) is more than 300 µM in assay [6], 716 µg/mL (≈ 2630 µM) in assay [7], 684 µg/mL (≈ 2510 µM) in assay [9] and 2040 µg/mL (≈ 7500 µM) in [12].
